Values quoted from earlier work as cited in patent publication US20220409351A1, “ORAL APPLIANCE FOR DELIVERY OF AN ANTIMICROBIAL COMPOSITION” (Emanate Biomedical, Inc., priority 2019, published 2022).

What was measured:
[1] = test system: oral pathogenic bacteria; settings: against oral pathogenic bacteria
[2] = test system: oral pathogenic bacteria; settings: at 10 minutes

MIC [1]: 0.0125 % w/v
SMILES: [H]/N=C(\N/C(=N/[H])NCCCCCCNC(=N)NC(=N)Nc1ccc(Cl)cc1)Nc1ccc(Cl)cc1 [Chlorhexidine, chlorhexidine]
MBC [2]: 0.5 % w/v
